The values that follow come from patent US20230295234A1, “ANTIMICROBIAL PEPTIDOMIMETICS” (SPEXIS AG, priority 2020, published 2023).

The test system of data set [1] is Klebsiella pneumoniae SSI3010. The following applies: SSI3010. In short, it runs like this:
(§1)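 Peptides were made up as 1 mg/mL stocks in sterile water. Colonies in 0.85% saline were set to 0.5 McFarland, then diluted in cation-adjusted Mueller-Hinton II broth to about 5×10^5 CFU/mL. Inoculum was combined with two-fold serial peptide dilutions in water containing 0.002% (final) polysorbate 80.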

Data set [2] concerns Escherichia coli MCR-1 Af 45. To be noted: MCR-1 Af 45. In short, it runs like this: as §1
In data set [3] the test system is Escherichia coli ATCC 25922. The following applies: ATCC 25922. In short, it runs like this:
as §1

In data set [4] the test system is human red blood cells (hRBC). In words: Hemolysis of human red blood cells. Format: cell-based. The following applies: red cells of human, 1 h. Summed up: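 Percent hemolysis is OD540 of peptide-treated supernatant relative to water-lysed cells. Each peptide was tested at 200 μg/mL against 20% (v/v) washed human erythrocytes. Incubation was 1 h at 37 °C, 300 rpm.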

Peptide text beside a SMILES is read from it.

For the molecule `CCCC[C@H](NC(=O)[C@H](CCCNC(=N)N)NC(=O)[C@H](CCC(N)=O)NC(=O)[C@@H]1CSSC[C@H](NC(=O)[C@H](Cc2ccc(O)cc2)NC(=O)[C@@H](NC(=O)[C@@H](NC(=O)[C@@H]2CCCN2C(=O)[C@@H](NC(=O)[C@@H]2CCCN2C(=O)[C@H](CCCCN)NC(=O)[C@@H](N)CCCCN)C(C)C)[C@@H](C)CC)[C@@H](C)CC)C(=O)N[C@@H](CC(N)=O)C(=O)N[C@@H](CCCNC(=N)N)C(=O)N[C@@H](CCCNC(=N)N)C(=O)N[C@@H]([C@@H](C)O)C(=O)N[C@H](CCN)C(=O)N[C@@H](CCN)C(=O)N1)C(=O)O` [Example 69] (HELM PEPTIDE1{K.K.P.V.P.I.I.Y.C.N.R.R.T.[NCC[C@@H](N[*:1])C(=O)[*:2]].[Dab].C.Q.R.[Nle]}$PEPTIDE1,PEPTIDE1,9:R3-16:R3$$$V2.0), the “Klebsiella pneumoniae SSI3010 MIC” value in data set [1] turned out to be 0.125 µg/mL. Further, in data set [2], the “Escherichia coli MCR-1 Af 45 MIC” value came to 0.125 µg/mL. In addition, the “Escherichia coli ATCC 25922 MIC” value in data set [3] amounted to 0.0625 µg/mL. In data set [4], the “Hemolysis at 0.2 g/L” value is 0%.

On to `CCCC[C@H](NC(=O)[C@H](CCCNC(=N)N)NC(=O)[C@H](CCN)NC(=O)[C@@H]1CSSC[C@H](NC(=O)[C@H](Cc2ccc(O)cc2)NC(=O)[C@@H](NC(=O)[C@@H](NC(=O)[C@@H]2CCCN2C(=O)[C@@H](NC(=O)[C@@H]2CCCN2C(=O)[C@H](CCCCN)NC(=O)[C@H](N)CCCCN)C(C)C)[C@@H](C)CC)[C@@H](C)CC)C(=O)N[C@@H](CC(N)=O)C(=O)N[C@@H](CCCNC(=N)N)C(=O)N[C@@H](CCCNC(=N)N)C(=O)N[C@@H]([C@@H](C)O)C(=O)N[C@H](CCN)C(=O)N[C@@H](CCCCN)C(=O)N1)C(=O)O` [Example 70] (HELM PEPTIDE1{[dK].K.P.V.P.I.I.Y.C.N.R.R.T.[NCC[C@@H](N[*:1])C(=O)[*:2]].K.C.[Dab].R.[Nle]}$PEPTIDE1,PEPTIDE1,9:R3-16:R3$$$V2.0), for which, in data set [1], the “Klebsiella pneumoniae SSI3010 MIC” value is 0.125 µg/mL. Besides, the “Escherichia coli MCR-1 Af 45 MIC” value in data set [2] was determined as 0.0625 µg/mL. Besides, the “Escherichia coli ATCC 25922 MIC” value in data set [3] was determined as 0.03125 µg/mL. For the same molecule, in data set [4], the “Hemolysis at 0.2 g/L” value came to 0%.

Turning to `CC[C@H](C)[C@H](NC(=O)[C@@H](NC(=O)[C@@H]1CCCN1C(=O)[C@@H](NC(=O)[C@@H]1CCCN1C(=O)[C@H](CCCNC(=N)N)NC(=O)[C@@H](N)CCCCN)C(C)C)[C@@H](C)CC)C(=O)N[C@@H](Cc1ccc(O)cc1)C(=O)N[C@H]1CSSC[C@@H](C(=O)N[C@@H](CCN)C(=O)N[C@@H](CCCNC(=N)N)C(=O)N[C@@H](Cc2ccc(O)cc2)C(=O)O)NC(=O)[C@H](CCCCN)NC(=O)[C@@H](CCN)NC(=O)[C@H]([C@@H](C)O)NC(=O)[C@H](CCN)NC(=O)[C@H](CCCNC(=N)N)NC(=O)[C@H](CC(N)=O)NC1=O` [Example 71] (HELM PEPTIDE1{K.R.P.V.P.I.I.Y.C.N.R.[Dab].T.[NCC[C@@H](N[*:1])C(=O)[*:2]].K.C.[Dab].R.Y}$PEPTIDE1,PEPTIDE1,9:R3-16:R3$$$V2.0), the “Klebsiella pneumoniae SSI3010 MIC” value in data set [1] was 0.0625 µg/mL. In addition, the “Escherichia coli MCR-1 Af 45 MIC” value in data set [2] turned out to be 0.0625 µg/mL. The “Escherichia coli ATCC 25922 MIC” value in data set [3] is 0.0625 µg/mL. For the same molecule, in data set [4], the “Hemolysis at 0.2 g/L” value is on record as 0%.

Consider `CCCC[C@H](NC(=O)[C@H](CCCNC(=N)N)NC(=O)[C@H](CCN)NC(=O)[C@@H]1CSSC[C@H](NC(=O)[C@H](Cc2ccc(O)cc2)NC(=O)[C@H](CCCNC(=N)N)NC(=O)[C@@H](NC(=O)[C@@H]2CCCN2C(=O)[C@@H](NC(=O)[C@@H]2CCCN2C(=O)[C@H](CCCNC(=N)N)NC(=O)[C@@H](N)CCCCN)C(C)C)[C@@H](C)CC)C(=O)N[C@@H](CC(N)=O)C(=O)N[C@@H](CCCNC(=N)N)C(=O)N[C@@H](CCN)C(=O)N[C@@H]([C@@H](C)O)C(=O)N[C@H](CCN)C(=O)N[C@@H](CCCCN)C(=O)N1)C(=O)O` [Example 72] (HELM PEPTIDE1{K.R.P.V.P.I.R.Y.C.N.R.[Dab].T.[NCC[C@@H](N[*:1])C(=O)[*:2]].K.C.[Dab].R.[Nle]}$PEPTIDE1,PEPTIDE1,9:R3-16:R3$$$V2.0), for which the “Klebsiella pneumoniae SSI3010 MIC” value in data set [1] is no more than 0.25 µg/mL. Further, the “Escherichia coli MCR-1 Af 45 MIC” value in data set [2] amounted to 0.0625 µg/mL. Also, the “Escherichia coli ATCC 25922 MIC” value in data set [3] was no more than 0.0625 µg/mL. Moreover, the “Hemolysis at 0.2 g/L” value in data set [4] was found to be 0%.

Take `CCCC[C@H](NC(=O)[C@H](CCCNC(=N)N)NC(=O)[C@H](CCN)NC(=O)[C@H]1NC(=O)[C@H](CCCCN)NC(=O)[C@@H](CCN)NC(=O)[C@H]([C@@H](C)O)NC(=O)[C@H](CCN)NC(=O)[C@H](CCCNC(=N)N)NC(=O)[C@H](CC(N)=O)NC(=O)[C@@H](NC(=O)[C@H](Cc2ccc(O)cc2)NC(=O)[C@@H](NC(=O)[C@@H](NC(=O)[C@@H]2CCCN2C(=O)[C@@H](NC(=O)[C@@H]2CCCN2C(=O)[C@H](CCCNC(=N)N)NC(=O)[C@@H](N)CCCCN)C(C)C)[C@@H](C)CC)[C@@H](C)CC)CSSC1(C)C)C(=O)O` [Example 73] (HELM PEPTIDE1{K.R.P.V.P.I.I.Y.C.N.R.[Dab].T.[NCC[C@@H](N[*:1])C(=O)[*:2]].K.[Pen].[Dab].R.[Nle]}$PEPTIDE1,PEPTIDE1,9:R3-16:R3$$$V2.0): the “Klebsiella pneumoniae SSI3010 MIC” value in data set [1] worked out at 0.125 µg/mL. For the same molecule, the “Escherichia coli MCR-1 Af 45 MIC” value in data set [2] was determined as 0.0625 µg/mL. Further, the “Escherichia coli ATCC 25922 MIC” value in data set [3] is no more than 0.125 µg/mL. Besides, the “Hemolysis at 0.2 g/L” value in data set [4] is listed as 0%.

Take `CCCC[C@H](NC(=O)[C@H](CCCNC(=N)N)NC(=O)[C@H](CCN)NC(=O)[C@@H]1CSSC[C@H](NC(=O)[C@H](Cc2ccc(O)cc2)NC(=O)[C@H](CCCNC(=N)N)NC(=O)[C@@H](NC(=O)[C@@H]2C[C@@H](N)CN2C(=O)[C@@H](NC(=O)[C@@H]2CCCN2C(=O)[C@H](CCCCN)NC(=O)[C@@H](N)CCCCN)C(C)C)[C@@H](C)CC)C(=O)N[C@@H](CC(N)=O)C(=O)N[C@@H](CCCNC(=N)N)C(=O)N[C@@H](CCCNC(=N)N)C(=O)N[C@@H]([C@@H](C)O)C(=O)N[C@H](CCN)C(=O)N[C@@H](CCCCN)C(=O)N1)C(=O)O` [Example 74] (HELM PEPTIDE1{K.K.P.V.[N[C@@H]1C[C@@H](C(=O)[*:2])N([*:1])C1].I.R.Y.C.N.R.R.T.[NCC[C@@H](N[*:1])C(=O)[*:2]].K.C.[Dab].R.[Nle]}$PEPTIDE1,PEPTIDE1,9:R3-16:R3$$$V2.0): in data set [1], the “Klebsiella pneumoniae SSI3010 MIC” value is 0.0625 µg/mL. Besides, the “Escherichia coli MCR-1 Af 45 MIC” value in data set [2] came to 0.0625 µg/mL. In data set [3], the “Escherichia coli ATCC 25922 MIC” value came out at 0.03125 µg/mL. In addition, the “Hemolysis at 0.2 g/L” value in data set [4] amounted to 0%.

As for `CCCC[C@H](NC(=O)[C@H](CCCNC(=N)N)NC(=O)[C@H](CCN)NC(=O)[C@@H]1CSSC[C@H](NC(=O)[C@H](Cc2ccc(O)cc2)NC(=O)[C@H](CCCNC(=N)N)NC(=O)[C@@H](NC(=O)[C@@H]2CCCN2C(=O)[C@@H](NC(=O)[C@@H]2CCCN2C(=O)[C@H](CCCNC(=N)N)NC(=O)[C@@H](N)CCCCN)C(C)C)[C@@H](C)CC)C(=O)N[C@@H](CC(N)=O)C(=O)N[C@@H](CCCNC(=N)N)C(=O)N[C@@H](CCCNC(=N)N)C(=O)N[C@@H]([C@@H](C)O)C(=O)N[C@H](CCN)C(=O)N[C@@H](CCCCN)C(=O)N1)C(=O)O` [Example 75] (HELM PEPTIDE1{K.R.P.V.P.I.R.Y.C.N.R.R.T.[NCC[C@@H](N[*:1])C(=O)[*:2]].K.C.[Dab].R.[Nle]}$PEPTIDE1,PEPTIDE1,9:R3-16:R3$$$V2.0), in data set [1], the “Klebsiella pneumoniae SSI3010 MIC” value is 0.0625 µg/mL. Besides, the “Escherichia coli MCR-1 Af 45 MIC” value in data set [2] came out at 0.0625 µg/mL. The “Escherichia coli ATCC 25922 MIC” value in data set [3] was no more than 0.0625 µg/mL. Further, the “Hemolysis at 0.2 g/L” value in data set [4] is 0%.

For `CCCC[C@H](NC(=O)[C@H](CCCNC(=N)N)NC(=O)[C@H](CCN)NC(=O)[C@@H]1CSSC[C@H](NC(=O)[C@H](Cc2ccc(O)cc2)NC(=O)[C@@H](NC(=O)[C@@H](NC(=O)[C@@H]2CCCN2C(=O)[C@@H](NC(=O)[C@@H](CCCCN)NC(=O)[C@H](CCCCN)NC(=O)[C@H](N)C(C)C)C(C)C)[C@@H](C)CC)[C@@H](C)CC)C(=O)N[C@@H](CC(N)=O)C(=O)N[C@@H](CCCNC(=N)N)C(=O)N[C@@H](CCCNC(=N)N)C(=O)N[C@@H]([C@@H](C)O)C(=O)N[C@H](CCN)C(=O)N[C@@H](CCCCN)C(=O)N1)C(=O)O` [Example 76] (HELM PEPTIDE1{[dV].K.[dK].V.P.I.I.Y.C.N.R.R.T.[NCC[C@@H](N[*:1])C(=O)[*:2]].K.C.[Dab].R.[Nle]}$PEPTIDE1,PEPTIDE1,9:R3-16:R3$$$V2.0), the “Klebsiella pneumoniae SSI3010 MIC” value in data set [1] came to 0.125 µg/mL. The “Escherichia coli MCR-1 Af 45 MIC” value in data set [2] was no more than 0.03125 µg/mL. Moreover, the “Escherichia coli ATCC 25922 MIC” value in data set [3] was found to be 0.0625 µg/mL. For the same molecule, the “Hemolysis at 0.2 g/L” value in data set [4] is 0%.

In the case of `CCCC[C@H](NC(=O)[C@H](CCCNC(=N)N)NC(=O)[C@H](CCN)NC(=O)[C@@H]1CSSC[C@H](NC(=O)[C@H](Cc2ccc(O)cc2)NC(=O)[C@H](Cc2c[nH]cn2)NC(=O)[C@@H](NC(=O)[C@@H]2CCCN2C(=O)[C@@H](NC(=O)[C@@H](CCCCN)NC(=O)[C@H](CCCCN)NC(=O)[C@@H](N)CCCCN)C(C)C)[C@@H](C)CC)C(=O)N[C@@H](CC(N)=O)C(=O)N[C@@H](CCCNC(=N)N)C(=O)N[C@@H](CCCNC(=N)N)C(=O)N[C@@H]([C@@H](C)O)C(=O)N[C@H](CCN)C(=O)N[C@@H](CCCCN)C(=O)N1)C(=O)O` [Example 77] (HELM PEPTIDE1{K.K.[dK].V.P.I.H.Y.C.N.R.R.T.[NCC[C@@H](N[*:1])C(=O)[*:2]].K.C.[Dab].R.[Nle]}$PEPTIDE1,PEPTIDE1,9:R3-16:R3$$$V2.0), the “Klebsiella pneumoniae SSI3010 MIC” value in data set [1] amounted to 0.25 µg/mL. The “Escherichia coli MCR-1 Af 45 MIC” value in data set [2] worked out at 0.0625 µg/mL. For the same molecule, the “Escherichia coli ATCC 25922 MIC” value in data set [3] worked out at 0.125 µg/mL. Also, the “Hemolysis at 0.2 g/L” value in data set [4] came out at 0%.
